The record followed here is BindingDB's records for patent US20240189315 (Boehringer Ingelheim International, 2024).

The target in the assay is Cyclic GMP-AMP synthase (Homo sapiens, UniProt Q8N884). The assay is described as follows: in vitro human biochemical cGAS inhibition.
Cyclic GMP-AMP synthase, sequence (Q8N884 whole entry): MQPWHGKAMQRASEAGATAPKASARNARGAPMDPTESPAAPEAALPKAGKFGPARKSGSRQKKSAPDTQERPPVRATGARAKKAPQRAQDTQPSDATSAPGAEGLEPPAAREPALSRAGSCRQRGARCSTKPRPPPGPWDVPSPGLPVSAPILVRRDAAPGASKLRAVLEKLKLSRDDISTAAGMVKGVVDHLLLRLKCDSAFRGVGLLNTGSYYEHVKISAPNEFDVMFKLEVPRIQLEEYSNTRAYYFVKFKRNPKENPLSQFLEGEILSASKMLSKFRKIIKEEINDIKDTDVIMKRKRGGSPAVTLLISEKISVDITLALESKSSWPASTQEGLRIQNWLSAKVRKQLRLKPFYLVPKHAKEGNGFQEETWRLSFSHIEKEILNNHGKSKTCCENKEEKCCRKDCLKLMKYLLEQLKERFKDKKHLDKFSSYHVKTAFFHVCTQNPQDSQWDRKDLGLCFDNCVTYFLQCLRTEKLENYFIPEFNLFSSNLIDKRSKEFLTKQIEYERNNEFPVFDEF
As a reminder, the IC50 is the point on the concentration scale where inhibition reaches its midpoint. The low end stands for greater potency, the high end for weaker potency. In the case of `COC(=O)[C@@H]1C[C@H](Oc2ncc(Br)cc2N2CCOC3(COC3)[C@@H]2C)CN1c1nc(C(F)(F)F)nc2c1oc1ccccc12` [US20240189315, Example P02 of PCT/EP2022/062480) (Prodrug of Ex. 1.10 of PCT/EP2022/062480)], the IC50 was over 9.95 µM.

Regarding `COC(=O)[C@@H]1C[C@H](Oc2ncccc2N2CCOC3(COC3)[C@@H]2C)CN1c1nc(C(F)F)nc2c1oc1ccccc12` [US20240189315, Example P01 of PCT/EP2022/062480) (Prodrug of Ex. 4.04 of PCT/EP-2022/062480)], the IC50 is over 9.96 µM.

With `COC(=O)[C@@H]1C[C@H](Oc2ncc(Cl)cc2[C@@]2(F)CCS(=O)(=O)C[C@@H]2C)CN1c1nc(C(F)F)nc2c1oc1ccccc12` [US12043625, Example P02 (prodrug of Ex. 1.13)], the IC50 was over 9.95 µM.

For `COC(=O)[C@@H]1C[C@H](Oc2ncc(-c3cccnc3OC)cc2N2CCOC3(COC3)[C@@H]2C)CN1c1nc(C(F)(F)F)nc2c1oc1ccccc12` [US20240189315, Example P04 of PCT/EP2022/062480) (Prodrug of Ex. 3.14 of PCT/EP2022/062480)], the IC50 is over 9.95 µM.

`C[C@H]1CN2CC[C@]1(F)c1cc(Cl)cnc1O[C@H]1C[C@@H](C(=O)O)N(C1)c1nc(nc3c1oc1ccccc13)CCCCOC2=O` [US20240189315, Example 35] gave an IC50 of 0.027 µM.
